The values that follow come from PubChem BioAssay (NCI).

Some test systems named below: A498 renal; M14 melanoma; CAKI-1 renal; COLO 205 colon; SF-539 CNS; ACHN renal; SF-268 CNS; OVCAR-3 ovarian; RPMI-8226 leukemia; CCRF-CEM leukemia.
Common to all, as to assay: NCI tumour cell line growth inhibition, 48 h

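A five-concentration, 48-hour dose response in 96-well plates underlies each endpoint, interpolated linearly between surrounding concentrations. TGI: total growth inhibition.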

With `C=CCOC(=O)CC[N+]1=CCC(c2ccccc2)(c2ccccc2)O1`, the TGI with A498 renal, in the test on M14 melanoma, with CAKI-1 renal, in the test on COLO 205 colon, in the test on SF-539 CNS and in the test with ACHN renal was > 100 µM in each case. In addition, the TGI in the test on SF-268 CNS and with OVCAR-3 ovarian was > 100 µM throughout.
For the compound `O=C(CNc1ccccc1Cl)Nn1c(-c2ccccc2)nc2ccccc2c1=O`, the TGI in the test on A498 renal is > 100 µM; with M14 melanoma it was > 10 µM; with COLO 205 colon, 34.6 µM; with SF-539 CNS it was 43.6 µM; with ACHN renal, > 100 µM; in the test on RPMI-8226 leukemia, > 100 µM. The TGI was > 100 µM in the test with SF-268 CNS, 48.3 µM in the test on OVCAR-3 ovarian and 70.5 µM in the test on CCRF-CEM leukemia.
Take `CSc1cc(Cl)c(C)cc1S(=O)(=O)NC(=O)NNc1ccc(Cl)cc1`: the TGI in the test on A498 renal, in the test on M14 melanoma, in the test with CAKI-1 renal, in the test on COLO 205 colon, with SF-539 CNS and in the test on ACHN renal was > 100 µM each time. For the same compound, the TGI in the test with SF-268 CNS and with OVCAR-3 ovarian was > 100 µM in each case.
As for `CC(=O)N(C(C)=O)C1=C2c3ccccc3N(S(=O)(=O)c3ccccc3)C2n2c(=O)n(-c3ccccc3)c(=O)n2C1` (centres undefined), the TGI in the test with M14 melanoma was 69.4 µM; in the test on CAKI-1 renal, > 100 µM; in the test with COLO 205 colon it was 80.2 µM; in the test on SF-539 CNS, 38.5 µM; in the test with ACHN renal, > 100 µM; with RPMI-8226 leukemia, 40.2 µM. The TGI is > 100 µM in the test with SF-268 CNS, 81.9 µM with OVCAR-3 ovarian and > 100 µM in the test with CCRF-CEM leukemia.
As to `CCOC(=O)c1c(-c2ccc(OC)cc2)c(C#N)c(=S)n(C2OC(COC(C)=O)C(OC(C)=O)C(OC(C)=O)C2OC(C)=O)c1C` (centres undefined), the TGI in the test with A498 renal, in the test on M14 melanoma, with CAKI-1 renal, in the test on COLO 205 colon, in the test on SF-539 CNS and in the test with ACHN renal was > 100 µM throughout. Also, the TGI with SF-268 CNS, in the test with OVCAR-3 ovarian and with CCRF-CEM leukemia was > 100 µM each time.
With `CN(C)C(=S)S`, the TGI in the test with A498 renal, in the test on M14 melanoma, in the test with CAKI-1 renal, in the test with COLO 205 colon, with SF-539 CNS and with ACHN renal was > 100 µM throughout. Also, the figures for the TGI with RPMI-8226 leukemia, in the test with SF-268 CNS and in the test with OVCAR-3 ovarian were > 78.9 µM, > 100 µM and 28.3 µM, respectively.
As for `N#C/C(=C\c1cc(Br)c(O)c(Br)c1)c1cccnc1`, the TGI with M14 melanoma is > 100 µM; in the test on CAKI-1 renal, > 100 µM; with COLO 205 colon it was > 100 µM; in the test with SF-539 CNS, 71.5 µM; in the test with ACHN renal, > 100 µM; in the test on RPMI-8226 leukemia, 86.3 µM. Also, the TGI in the test with SF-268 CNS is > 100 µM; with OVCAR-3 ovarian it was 44 µM; in the test with CCRF-CEM leukemia, > 100 µM.
Consider `Clc1ccc(-c2nn3c(-c4ccncc4)nnc3s2)cc1`, for which the TGI in the test on M14 melanoma, with CAKI-1 renal, with COLO 205 colon, with SF-539 CNS, in the test with ACHN renal and in the test on RPMI-8226 leukemia was > 100 µM each time. Further, the TGI in the test on SF-268 CNS, in the test with OVCAR-3 ovarian and in the test with CCRF-CEM leukemia was > 100 µM in each case.
On to `C/C(CC1C2CCCC1C2)=N\NC(N)=O` (centres undefined), for which the TGI in the test on M14 melanoma, with CAKI-1 renal, in the test with COLO 205 colon, with SF-539 CNS, in the test with ACHN renal and with RPMI-8226 leukemia was > 100 µM in each case. Further, the TGI with SF-268 CNS, in the test with OVCAR-3 ovarian and with CCRF-CEM leukemia was > 100 µM in each case.
Consider `C/C=C/C=C/c1nc(C#N)c(N)o1`, for which the TGI with M14 melanoma, with CAKI-1 renal, in the test with COLO 205 colon, in the test with SF-539 CNS, in the test on ACHN renal and in the test on RPMI-8226 leukemia was > 100 µM in each case. Also, the TGI with SF-268 CNS, in the test with OVCAR-3 ovarian and in the test on CCRF-CEM leukemia was > 100 µM each time.
As to `Cc1c(S(=O)(=O)/N=C(\N)Nc2ccc(Cl)cc2)sc2ccc(Cl)cc12`, the TGI with A498 renal is 30.1 µM; in the test with M14 melanoma, 37.9 µM; with COLO 205 colon, 45.9 µM; with SF-539 CNS it was > 100 µM; in the test with ACHN renal, 32.2 µM; in the test with RPMI-8226 leukemia, > 100 µM. Further, the TGI in the test on SF-268 CNS was found to be 32 µM; in the test with OVCAR-3 ovarian it was 36.5 µM.
With `c1ccc2sc(SCSc3nc4ccccc4s3)nc2c1`, the TGI in the test with A498 renal, in the test with M14 melanoma, with CAKI-1 renal, in the test on ACHN renal, in the test with RPMI-8226 leukemia and in the test with SF-268 CNS was > 100 µM throughout. For the same compound, the TGI in the test on OVCAR-3 ovarian and in the test on CCRF-CEM leukemia was > 100 µM throughout.
For the compound `Cc1ccccc1C(O)(c1nccn1C)c1nccn1C`, the TGI in the test on A498 renal, in the test on M14 melanoma, in the test with CAKI-1 renal, in the test on COLO 205 colon, with SF-539 CNS and in the test with ACHN renal was > 100 µM throughout. Moreover, the TGI in the test with SF-268 CNS, in the test with OVCAR-3 ovarian and in the test on CCRF-CEM leukemia was > 100 µM each time.
As for `BrC/C=C/C[P+](c1ccccc1)(c1ccccc1)c1ccccc1`, the TGI is 82.4 µM with M14 melanoma; 16.1 µM with COLO 205 colon; 22.4 µM with SF-539 CNS; > 100 µM in the test on ACHN renal; > 100 µM in the test with RPMI-8226 leukemia; > 100 µM with SF-268 CNS. The TGI in the test on OVCAR-3 ovarian was 58.7 µM; with CCRF-CEM leukemia it was > 100 µM.
Turning to `NNC(=O)c1ccc[n+](CCc2ccccc2)c1`, the TGI with A498 renal, with M14 melanoma, with CAKI-1 renal, with COLO 205 colon, in the test with ACHN renal and with RPMI-8226 leukemia was > 100 µM in each case. The TGI with SF-268 CNS and in the test with OVCAR-3 ovarian was > 100 µM throughout.
